{"source": "paper PMC6277555", "about": "“Short Symmetric-End Antimicrobial Peptides Centered on β-Turn Amino Acids Unit Improve Selectivity and Stability” (Frontiers in Microbiology, 2018)", "key": {"S. faecalis ATCC 29212": {"tested_on": "S. faecalis ATCC 29212", "assay_type": "cell-based, Streptococcus faecalis", "procedure": "(§1) The minimal inhibitory concentration (MIC) was determined according to a previously described method ([Chou et al., 2016]). Bacteria were cultured overnight to mid-log phase in MHB at 37°C and then diluted to give final concentrations ranging from 2 × 10^5 to 7 × 10^5 CFU/mL. Then, 50 μL of serial twofold dilutions of the peptides were added to each well in 96-well microtiter plates with a mixed solution containing 0.01% acetic acid and 0.2% bovine serum albumin (BSA, Sigma) was used to dissolve and dilute the peptides. Then, equal amounts of bacterial aliquots were incubated with the above peptide solution for 18–24 h at 37°C. The experiment was performed in triplicate using three replicates for each peptide and each bacterium. The broth was employed as a negative control and the broth with microbial cells was used as a positive control. The lowest concentration of peptide that prevented visible turbidity was defined as the MIC."}, "S. pullorum C79-13": {"tested_on": "S. pullorum C79-13", "assay_type": "cell-based, Salmonella pullorum", "procedure": "as §1"}, "S. typhimurium ATCC 7731": {"tested_on": "S. typhimurium ATCC 7731", "assay_type": "cell-based, Salmonella entericaserovar Typhimurium", "procedure": "as §1"}, "[1]": {"test": "LPS-binding assay (BODIPY-TR-cadaverine displacement)", "design": "species or system Escherichia coli", "details": "BC displacement at the MIC concentration; relative to 10 μg/mL polymyxin B", "procedure": "The binding affinities of peptides to LPS were examined using the BODIPY-TR-cadaverine fluorescent dye (BC, Sigma, United States) displacement assay, in which a probe bound to cell-free LPS results in dequenching of BC fluorescence. Stock solutions of LPS from E. coli O111:B4 (5 mg/mL; Sigma-Aldrich, China) and BC (2.5 mg/mL; Sigma-Aldrich, China) were prepared and diluted in Tris buffer (pH 7.4, 50 mM) to reach a final concentration of 50 μg/mL of LPS and 5 μg/mL BC. A 100 μL aliquot of the LPS-probe and peptide mixture (50 μL LPS and BC solutions at final concentrations of 25 μg/mL LPS and 2.5 μg/mL BODIPY-TR-cadaverine, 50 μL peptide with various concentrations ranging from 1 to 64 μM) was added in a sterile 96-well black plate. The fluorescence was measured on a spectrofluorophotometer (the Infinite 200 pro, Tecan, China) at excitation and emission wavelengths of 580 and 620 nm, respectively, with each test performed independently in triplicate. The values were converted to % ΔF (AU) using the following equation:\nwhere Fobs is the observed fluorescence at a given peptide concentration, F0 is the initial fluorescence of BC with LPS in the absence of peptides, and F100 is the BC fluorescence with LPS cells upon addition of 10 μg/mL polymyxin B, which is a prototype LPS binder and was used as a positive control."}, "S. aureus ATCC 43300": {"tested_on": "S. aureus ATCC 43300", "assay_type": "cell-based, Staphylococcus aureus", "procedure": "as §1"}, "[2]": {"tested_on": "Gram-negative and Gram-positive bacterial strains", "test": "Geometric mean of MICs and therapeutic index", "assay_type": "cell-based", "procedure": "The hemolytic activity of the peptides was detected using a previously described modified method ([Wang et al., 2015]). One milliliter of fresh hRBCs was obtained from a healthy donor (Zhihua Wang, Harbin, China) in a polycarbonate tube containing heparin. The collected hRBCs were centrifuged at 1000 × g for 5 min at 4°C and resuspended in PBS buffer (pH 7.2). The hRBCs were washed three times and then incubated with an equal volume of the respective peptide dissolved in PBS for 1 h at 37°C. Then, the hRBC suspension was placed into a 96-well microtiter plater with 50 μL of tested peptide solution at different concentrations and the mixture was incubated for 1 h at 37°C. […] The minimum hemolytic concentrations (MHCs) were defined as the peptide concentrations resulting in 5% hemolysis.\nas §1"}, "[3]": {"tested_on": "total genomic DNA from E. coli", "test": "DNA binding assay (gel retardation)", "design": "species or system Escherichia coli", "details": "1 h", "procedure": "Gel retardation experiments were performed as previously described ([Zhu et al., 2015]). The total genomic DNA from E. coli was extracted using the rapid bacterial genomic DNA isolation kit (Sangon Biotech, China). First, increasing concentrations of peptides were mixed with 400 ng of genomic DNA in 20 μL of binding buffer [5% glycerol, 10 mM Tris-HCl (pH 8.0), 1 mM EDTA, 1 mM dithiothreitol, 20 mM KCl, and 50 μg/mL bovine serum albumin] and incubated at 37°C for 1 h. Next, 4 μL of native loading buffer [10% Ficoll 400, 10 mM Tris-HCl (pH 7.5), 50 mM EDTA, 0.25% bromophenol blue, and 0.25% xylene cyanol] was mixed with the samples and a 12 μL aliquot was subjected to 1% agarose gel electrophoresis in 0.5× Tris borate-EDTA buffer (45 mM Tris-borate and 1 mM EDTA, pH 8.0). Finally, gel retardation was visualized using UVP bioimaging systems."}, "S. aureus ATCC 29213": {"tested_on": "S. aureus ATCC 29213", "assay_type": "cell-based, Staphylococcus aureus", "procedure": "as §1, with “18-24” for “18–24”, “MIC. The condition sensitivity of peptides was tested in an MIC assay in different environments, including salt sensitivity, thermal sensitivity and different pH values similar to our previous method ([[…] et al., 2008]; [Ma et al., 2012]). […] For the heat resistance experiments, the peptides were incubated at 100°C for 30 min and cooled on ice for 10 min. […] The determination methods for these MIC assays were same as described above. To test the effects of serum on the antimicrobial activities of the peptides, human serum was dissolved in MHB to reach final concentrations of 25 and 50%. The determination methods for these MIC assays were same as described above.” for “MIC.”"}}, "note": "Residues, ends and D or L forms follow the SMILES beside them.", "data": [{"smiles": "CC[C@H](C)[C@H](N)C(=O)N[C@@H](Cc1c[nH]cn1)C(=O)N[C@@H](CCCCN)C(=O)N[C@@H](Cc1ccccc1)C(=O)N[C@@H](Cc1c[nH]c2ccccc12)C(=O)N[C@@H](CCCNC(=N)N)C(=O)N[C@@H](CS)C(=O)N[C@@H](CCCNC(=N)N)C(=O)N[C@@H](CCCNC(=N)N)C(=O)N[C@@H](CCCNC(=N)N)C(=O)N[C@@H](Cc1ccccc1)C(=O)N[C@@H](CS)C(=O)N[C@@H](CCCNC(=N)N)C(=O)N[C@@H](Cc1c[nH]c2ccccc12)C(=O)N[C@@H](Cc1ccccc1)C(=O)N[C@@H](CCCCN)C(=O)N[C@@H](Cc1c[nH]cn1)C(=O)N[C@H](C(N)=O)[C@@H](C)CC", "note": "[PQ] (H-IHKFWRCRRRFCRWFKHI-NH2; N-terminus assumed)", "values": [{"measurement": "MIC", "setting": "S. faecalis ATCC 29212", "value": 16, "unit": "µM"}, {"measurement": "MIC", "setting": "S. pullorum C79-13", "value": 8, "unit": "µM"}, {"measurement": "MIC", "setting": "S. typhimurium ATCC 7731", "value": 8, "unit": "µM"}, {"measurement": "LPS binding, fluorescence (% ΔF)", "setting": "[1]", "value": "above 80%"}, {"measurement": "MIC", "setting": "S. aureus ATCC 43300", "value": 8, "unit": "µM"}, {"measurement": "GM (geometric mean of the MIC values)", "setting": "[2]; all ten tested strains", "value": 9.8, "unit": "µM"}, {"measurement": "Therapeutic index", "setting": "[2]; from MHC and GM", "value": 26.1}, {"measurement": "Concentration showing DNA-binding ability", "setting": "[3]", "value": "> 128", "unit": "µM"}, {"measurement": "MIC", "setting": "S. aureus ATCC 29213; ATCC 29213", "value": 8, "unit": "µM"}, {"measurement": "MIC, CaCl2", "setting": "S. aureus ATCC 29213; ATCC 29213", "value": 8, "unit": "µM"}, {"measurement": "MIC, Control", "setting": "S. aureus ATCC 29213; ATCC 29213", "value": 8, "unit": "µM"}, {"measurement": "MIC, FeCl3", "setting": "S. aureus ATCC 29213; ATCC 29213", "value": 8, "unit": "µM"}, {"measurement": "MIC, Heat (100°C)", "setting": "S. aureus ATCC 29213; ATCC 29213", "value": 32, "unit": "µM"}, {"measurement": "MIC, KCl", "setting": "S. aureus ATCC 29213; ATCC 29213", "value": 8, "unit": "µM"}, {"measurement": "MIC, MgCl2", "setting": "S. aureus ATCC 29213; ATCC 29213", "value": 8, "unit": "µM"}, {"measurement": "MIC, NH4Cl", "setting": "S. aureus ATCC 29213; ATCC 29213", "value": 8, "unit": "µM"}, {"measurement": "MIC, NaCl", "setting": "S. aureus ATCC 29213; ATCC 29213", "value": 8, "unit": "µM"}, {"measurement": "MIC, ZnCl2", "setting": "S. aureus ATCC 29213; ATCC 29213", "value": 8, "unit": "µM"}, {"measurement": "MIC, pH 4.0", "setting": "S. aureus ATCC 29213; ATCC 29213, pH 4", "value": 8, "unit": "μM"}, {"measurement": "MIC, pH 6.0", "setting": "S. aureus ATCC 29213; ATCC 29213, pH 6", "value": 8, "unit": "μM"}, {"measurement": "MIC, pH 8.0", "setting": "S. aureus ATCC 29213; ATCC 29213, pH 8", "value": 8, "unit": "μM"}, {"measurement": "MIC, pH 10.0", "setting": "S. aureus ATCC 29213; ATCC 29213, pH 10", "value": 8, "unit": "μM"}]}]}
